Tests used:
[1] = tested on: PCP-disrupted PPI response in rats; experiment: PCP-disrupted PPI response in rats (schizophrenia model), intravenous administration; assay type: in vivo, Male Wistar rats; settings: PCP 1.5 mg/kg s.c.; for % PPI (Mean ± SEM): 0.5 mg/kg intravenous, 15 min before PPI (immediately before PCP), pre-pulse 60 dB, startle 110 dB; for effect on PCP-disrupted PPI response: intravenous administration 15 min before PPI
Method: Male Wistar rats (n=135) (200-300 g) were used. Animals are housed at a standard temperature (22±1° C.) and in a light-controlled environment (lights on from 7 am to 8 pm) with ad libitum access to food and water. Animals are treated with Phencyclidine (PCP) at 1.5 mg/kg, s.c., and tested in Pre-Pulse Inhibition (PPI) 15 min later. Intravenous administration of Compound A ((−)-7-[(1R,2R)-2-(4,4-difluoro-3-oxooctyl)-5-oxocyclopentyl]heptanoic acid), Compound B ((+)-isopropyl (Z)-7-[(1R,2R,3R,5S)-3,5-dihydroxy-2-(3-oxodecyl)cyclopentyl]hept-5-enoate) and corresponding vehicle was done 15 min before PPI, which means each compound or vehicle was administered immediately before PCP injection.
(§1) PPI tests were conducted in standard startle chambers (SR-LAB Startle Response system, San Diego Instruments, USA). Before the PPI testing, the animals were habituated to handling. On the day of PPI testing, the animals were placed in the chamber and allowed to habituate for a period of 300 s. After habituation period, the rats received 12 startle trials, 12 no-stimulus trials, and 12 trials of the pre-pulse/startle trials (3×12 trials). The startle trials consists of single 110 dB white noise burst lasting 20 ms. The PPI trials consist of a pre-pulse (20 ms burst of white noise with intensities of 60 dB) followed 100 ms later by a startle stimulus (110 dB, 20 ms white noise). During the no-stimulus trial, no startle noise is presented. The resulting movement of the rat in the startle chamber is measured during 100 ms after startle stimulus onset. Basal startle amplitude is determined as the mean amplitude of the 12 startle trials. % PPI is calculated according to the formula 100−100%×(PP/P110), in which PP is the mean of the 12 pre-pulse inhibition trials (i.e., for each individual pre-pulse intensity), and P110 is the basal startle amplitude. The animals are treated with PCP s.c. and then tested in PPI 15 min later.

[2] = tested on: PCP-disrupted PPI response in rats; experiment: PCP-disrupted PPI response in rats, oral administration; assay type: in vivo, Male Wistar rats; settings: PCP 1.5 mg/kg s.c.; for % PPI (Mean ± SEM): 0.3 mg/kg oral, 45 min before PPI (30 min before PCP), pre-pulse 63 dB, startle 110 dB; for effect on PCP-disrupted PPI response: oral administration 45 min before PPI
Method: Male Wistar rats (n=135) (200-300 g) were used. Animals are housed at a standard temperature (22±1° C.) and in a light-controlled environment (lights on from 7 am to 8 pm) with ad libitum access to food and water. Animals are treated with Phencyclidine (PCP) at 1.5 mg/kg, s.c., and tested in Pre-Pulse Inhibition (PPI) 15 min later. Oral administration of Compound B ((+)-isopropyl (Z)-7-[(1R,2R,3R,5S)-3,5-dihydroxy-2-(3-oxodecyl)cyclopentyl]hept-5-enoate) and Compound C ((E)-7-[(1R,2R)-2-(4,4-difluoro-3-oxooctyl)-5-oxocyclopentyl]hept-2-enoic acid) and corresponding vehicle was done 45 min before PPI, which means each compound or vehicle was administered 30 min before PCP injection.
as §1, with “63” for “60”

| Compound | % PPI (Mean ± SEM) [1] [%] | effect on PCP-disrupted PPI response [1] | % PPI (Mean ± SEM) [2] [%] | effect on PCP-disrupted PPI response [2] |
| --- | --- | --- | --- | --- |
| CCCCC(F)(F)C(=O)CC[C@H]1CCC(=O)[C@@H]1CCCCCCC(=O)O [Compound A, (−)-7-[(1R,2R)-2-(4,4-difluoro-3-oxooctyl)-5-oxocyclopentyl]heptanoic acid] | 34.2 ± 3.9 | improved the PCP-disrupted PPI response | – | – |
| CCCCCCCC(=O)CC[C@@H]1[C@@H](C/C=C\CCCC(=O)OC(C)C)[C@@H](O)C[C@H]1O [Compound B, (+)-isopropyl (Z)-7-[(1R,2R,3R,5S)-3,5-dihydroxy-2-(3-oxodecyl)cyclopentyl]hept-5-enoate] | 40.5 ± 4.2 | improved the PCP-disrupted PPI response | 24.0 ± 5.3 | improved the PCP-disrupted PPI response |
| CCCCC(F)(F)C(=O)CC[C@H]1CCC(=O)[C@@H]1CCCC/C=C/C(=O)O [Compound C, (E)-7-[(1R,2R)-2-(4,4-difluoro-3-oxooctyl)-5-oxocyclopentyl]hept-2-enoic acid] | – | – | 24.7 ± 5.0 | improved the PCP-disrupted PPI response |
